Read-outs that look alike come from different tables or passages of the source. A value given as a limit tells only on which side of the number the result lay.

Drawing on patent publication US20140088085A1, “Substituted Benzoazepines As Toll-Like Receptor Modulators” (ARRAY BIOPHARMA, INC, priority 2011, published 2014), this text covers IC50 and inhibition for 27 compounds.

The experiment deals with T1, hTLR8 (Homo sapiens, UniProt Q9NR97).
T1 construct: host or cells: HEK293 cells stably transfected with hTLR8
T1 sequence (Q9NR97 27-1041): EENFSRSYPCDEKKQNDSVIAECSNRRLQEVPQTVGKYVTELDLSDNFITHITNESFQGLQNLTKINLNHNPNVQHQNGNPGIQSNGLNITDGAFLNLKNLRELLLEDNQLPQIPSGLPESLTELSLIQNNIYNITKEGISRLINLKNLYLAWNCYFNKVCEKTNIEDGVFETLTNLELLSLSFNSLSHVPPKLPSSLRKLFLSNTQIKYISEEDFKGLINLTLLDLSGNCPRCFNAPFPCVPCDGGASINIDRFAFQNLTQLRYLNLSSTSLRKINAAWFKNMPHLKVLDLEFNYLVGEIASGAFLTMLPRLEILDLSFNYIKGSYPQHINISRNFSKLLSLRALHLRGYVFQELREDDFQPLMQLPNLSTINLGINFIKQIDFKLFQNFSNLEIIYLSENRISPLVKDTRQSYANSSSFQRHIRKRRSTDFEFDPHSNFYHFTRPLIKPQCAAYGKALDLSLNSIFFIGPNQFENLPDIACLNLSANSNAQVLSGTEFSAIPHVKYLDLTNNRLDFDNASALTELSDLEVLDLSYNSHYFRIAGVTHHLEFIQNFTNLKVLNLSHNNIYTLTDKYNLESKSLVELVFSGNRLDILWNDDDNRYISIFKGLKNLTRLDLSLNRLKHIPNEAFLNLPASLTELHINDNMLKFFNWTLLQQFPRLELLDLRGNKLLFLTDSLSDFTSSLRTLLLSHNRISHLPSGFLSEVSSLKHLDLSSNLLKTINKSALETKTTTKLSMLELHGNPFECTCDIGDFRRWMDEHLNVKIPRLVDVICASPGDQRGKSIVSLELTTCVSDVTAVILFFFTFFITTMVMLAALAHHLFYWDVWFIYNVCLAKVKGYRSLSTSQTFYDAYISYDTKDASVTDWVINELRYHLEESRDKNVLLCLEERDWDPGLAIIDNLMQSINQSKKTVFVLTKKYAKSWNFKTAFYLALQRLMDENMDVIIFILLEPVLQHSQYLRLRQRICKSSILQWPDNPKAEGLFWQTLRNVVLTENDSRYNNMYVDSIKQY
The experiment is described as follows: HEK-293 hTLR8 transfectant NF-κB SEAP reporter antagonist assay. It is filed as cell-based. The note with it: for inhibition at 25 µM: HEK293, TLR8 antagonist activity at 25 μM (in some cases assessed at lower concentrations). On the procedure: The HEK-293 hTLR transfectant assay employs HEK293 cells stably transfected with various hTLRs and transiently co-transfected with a plasmid containing an NF-κB driven secreted embryonic alkaline phosphate (SEAP) reporter gene. Stimulation of TLRs activates their downstream signaling pathways and induces nuclear translocation of the transcription factor NF-κB. Reporter gene activity is then measured using a spectrophotometric assay.
For the TLR8 antagonist assays, cells are transiently transfected with the reporter gene on Day 1 per the supplier's instructions. Antagonist compounds are added to the cultures on Day 2 followed by addition of a TLR8 agonist approximately 2 hours later. Cultures are incubated overnight and SEAP activity is measured on Day 3.
In a typical assay, 50,000 HEK239 hTLR8 cells are seeded per culture well and transiently transfected with the SEAP reporter gene. Antagonists are added to cultures in culture medium and […] DMSO over a concentration range of 0.1 nanomolar to 10 micromolar. TLR8 agonists are added to cultures 2 hours later at a fixed concentration (e.g., 1 micromolar or 10 micromolar of Compound A) and cultures are then incubated for 16-24 hrs at 37° C. in a humidified CO incubator. Antagonists are also evaluated for activity in the absence of agonist.
TLR8 antagonist activity at 25 μM is presented in Table 2, where + denotes a % inhibition of 20-39, ++ denotes a % inhibition of 40-59, +++ denotes a % inhibition of 60-79 and ++++ denotes a % inhibition of 80-99. In some cases, antagonist activity was assessed at lower concentrations, for example, at 8.3, 2.8, or less than 1 μM.
TLR8 antagonist activity was measured in a hTLR8 assay format, measuring IC50 values. Compounds were incubated with hTLR8 reporter cells for two hours, then 1 μM Compound A was added to induce TLR8 overnight. IC50 were then calculated.

Setting [1] is: hTLR8 reporter cells, 2 h preincubation, then 1 μM Compound A overnight, read-out: IC50.
Setting [2] is: IC50, nM, vs. VTX-378 1 μM, agonist VTX-378 at 1 μM.
[3] abbreviates: IC50, nM, vs. VTX-378 10 μM, agonist VTX-378 at 10 μM.
The mark [4] stands for this setting: agonist VTX-378 at 0.5 μM, read-out: IC50, nM, vs. VTX-378 0.5 μM.

Usually IC50 stands for the concentration that gives 50% inhibition. Take `CCCN(CCC)C(=O)C1=Cc2cc(OC)c(-c3ccc(C(=O)N(CCC)CCC)cc3)cc2N=C(N)C1` [Compound 12, (1E,4E)-2-Amino-8-(4-(dipropylcarbamoyl)phenyl)-7-methoxy-N,N-dipropyl-3H-benzo[b]azepine-4-carboxamide]: the IC50 under setting [1] fell in the range of 1000 to 5000 nM.
In general, inhibition refers to how much of the control response was suppressed. Turning to `CCCN(CCCO)C(=O)C1=Cc2cc(OC)c(-c3ccc(C(=O)N4CCCC4)cc3)cc2N=C(N)C1` [Compound 25, (1E,4E)-2-Amino-N-(3-hydroxypropyl)-7-methoxy-N-propyl-8-(4-(pyrrolidine-1-carbonyl)phenyl)-3H-benzo[b]azepine-4-carboxamide], the inhibition at 25 µM was 20 to 39%.
On to `CCCN(CCC)C(=O)C1=Cc2ccc(-c3ccc(C(=O)N4CCCC4)cc3)cc2N=C(NN)C1` [Compound 33, (1E,4E)-2-Hydrazinyl-N,N-dipropyl-8-(4-(pyrrolidine-1-carbonyl)phenyl)-3H-benzo[b]azepine-4-carboxamide], for which the inhibition at 25 µM lay in the range of 80 to 99%. Under setting [1], the IC50 was in the range of 1000 to 5000 nM.
With `CCCN(CCCO)C(=O)C1=Cc2ccc(-c3ccc(C(=O)N4CCCC4)cc3)cc2N=C(NC)C1` [Compound 46, (1E,4E)-N-(3-Hydroxypropyl)-2-(methylamino)-N-propyl-8-(4-(pyrrolidine-1-carbonyl)phenyl)-3H-benzo[b]azepine-4-carboxamide], the inhibition at 25 µM lay within 40 to 59%.
Still for that read-out and setting: to `CCCN(CCCO)C(=O)C1=Cc2ccc(-c3ccc(C(=O)N4CCCC4)cc3)cc2N=C(NCCN(C)C)C1` [Compound 47, (1E,4E)-2-(2-(Dimethylamino)ethylamino)-N-(3-hydroxypropyl)-N-propyl-8-(4-(pyrrolidine-1-carbonyl)phenyl)-3H-benzo[b]azepine-4-carboxamide] belongs 20 to 39%.
In the case of `CCOC(=O)C1=Cc2cc(-c3ccc(C(=O)N4CCCC4)cc3)ccc2N=C(N)C1` [Compound 63, (1E,4E)-Ethyl 2-amino-7-(4-(pyrrolidine-1-carbonyl)phenyl)-3H-benzo[b]azepine-4-carboxylate], the inhibition at 25 µM fell in the range of 80 to 99%. For the same compound, the IC50 under setting [1] is under 1000 nM.
For the compound `CCCN(CCC)C(=O)C1=Cc2cc(OC)c(-c3ccc(C(=O)N4CCCC4)cc3)cc2N=C(N)C1` [Compound 65, (1E,4E)-2-Amino-7-methoxy-N,N-dipropyl-8-(4-(pyrrolidine-1-carbonyl)phenyl)-3H-benzo[b]azepine-4-carboxamide], the inhibition at 25 µM was 60 to 79%. Also, the IC50 under setting [1] was in the range of 5000 to 10000 nM.
On to `CCCN(CCC)C(=O)C1=Cc2cc(OC)ccc2N=C(N)C1` [Compound 70, (1E,4E)-2-amino-7-methoxy-N,N-dipropyl-3H-benzo[b]azepine-4-carboxamide], for which the inhibition at 25 µM lay within 40 to 59%.
Consider `CCOC(=O)C1=Cc2cc(OCc3ccccn3)ccc2N=C(N)C1` [Compound 74, (1E,4E)-ethyl 2-amino-7-(pyridin-2-ylmethoxy)-3H-benzo[b]azepine-4-carboxylate], for which the inhibition at 25 µM fell in the range of 60 to 79%. Further, the IC50 under setting [1] is 1000 to 5000 nM.
Taken in the same sequence, the figures for `CCOC(=O)C1=Cc2cc(OC)c(-c3ccc(C(=O)N4CCCC4)cc3)cc2N=C(N)C1` [Compound 76, (1E,4E)-ethyl 2-amino-7-methoxy-8-(4-(pyrrolidine-1-carbonyl)phenyl)-3H-benzo[b]azepine-4-carboxylate] were 80 to 99% and at least 10000 nM.
For `CCOC(=O)N1Cc2ccc(-c3ccc(C(=O)N4CCCC4)cc3)cc2N=C(N)C12CC2` [Compound 88, (E)-Ethyl 2-amino-8-(4-(pyrrolidine-1-carbonyl)phenyl)spiro[benzo[e][1,4]diazepine-3,1′-cyclopropane]-4(5H)-carboxylate], the inhibition at 25 µM lay within 20 to 39%. The IC50 under setting [1] is 5000 to 10000 nM.
For `CCOC(=O)C1=Cc2ccc(-c3ccc(C(=O)N4CCCC4)cc3)cc2N2CCN=C2C1` [Compound 90, (E)-ethyl 9-(4-(pyrrolidine-1-carbonyl)phenyl)-2,4-dihydro-1H-benzo[f]imidazo[1,2-a]azepine-5-carboxylate], the inhibition at 25 µM lay in the range of 60 to 79%.
With `CCOC(=O)C1=Cc2cc(-c3ccc(C(=O)N4CCCC4)cc3)ccc2-n2ccnc2C1` [Compound 2919], the IC50 runs as follows: under setting [2], at least 10000 nM; under setting [3], at least 10000 nM.
For the compound `CCOC(=O)C1=Cc2cc(-c3ccc(C(=O)N4CCCC4)cc3)ccc2N=C(NC)C1` [Compound 2922], the IC50 is, setting by setting: under setting [2], 1000 to 10000 nM; under setting [3], at least 10000 nM.
For `CCOC(=O)C1=Cc2cc(-c3ccc(C(=O)N4CCCC4)cc3)ccc2N=C(NN(C)C)C1` [Compound 2926], in that order: 1000 to 10000 nM and at least 10000 nM.
For `CCOC(=O)C1=Cc2cc(-c3ccc(C(=O)N4CCCC4)cc3)ccc2N=C(N(C)C)C1` [Compound 2929], in that order: at least 10000 nM and at least 10000 nM.
For `COC(=O)C1=Cc2cc(-c3ccc(C(=O)N4CCCC4)cc3)ccc2N=C(N)C1` [Compound 2931], in that order: under 1000 nM and 1000 to 10000 nM.
`CCOC(=O)N1CC(N)=Nc2ccc(-c3ccc(C(=O)N4CCCC4)cc3)cc2C1` [Compound 2954]: the IC50 runs as follows: under setting [2], at least 10000 nM; under setting [3], at least 10000 nM.
As for `CCOC(=O)C1=Cc2cc(-c3ccc(C(=O)N4CCCC4)cc3)ccc2N=C(NN)C1` [Compound 2962], the IC50 runs as follows: under setting [2], at least 10000 nM; under setting [3], at least 10000 nM.
For the compound `CCOC(=O)C1=Cc2cc(-c3ccc(C(=O)N4CCCC4)cc3)ccc2N2CCN=C2C1` [Compound 2966], the IC50 under setting [2] is at least 10000 nM and the IC50 under setting [3] was at least 10000 nM.
As for `CCOC(=O)C1=Cc2cc(-c3ccc(C(=O)N4CCCC4)cc3)ccc2-n2cnnc2C1` [Compound 2976], the IC50 is, setting by setting: under setting [2], at least 10000 nM; under setting [3], at least 10000 nM.
Turning to `CC(C)OC(=O)C1=Cc2cc(-c3ccc(C(=O)N4CCCC4)cc3)ccc2N=C(N)C1` [Compound 2984], the IC50 is, setting by setting: under setting [2], under 1000 nM; under setting [3], 1000 to 10000 nM.
As to `CN(C)C(=O)C1=Cc2cc(-c3ccc(C(=O)N4CCCC4)cc3)ccc2N=C(N)C1` [Compound 2986], the IC50 runs as follows: under setting [2], under 1000 nM; under setting [3], at least 10000 nM.
`CCOC(=O)C1=Cc2cc(-c3ccc(C(=O)N4CCCC4)cc3)ccc2-n2c(n[nH]c2=O)C1` [Compound 3000]: the IC50 was at least 10000 nM under setting [2] and at least 10000 nM under setting [3].
Consider `CCOC(=O)N1Cc2cc(-c3ccc(C(=O)N4CCCC4)cc3)ccc2N=C(N)C12CC2` [Compound 3020], for which the IC50 was at least 10000 nM under setting [2] and at least 10000 nM under setting [3].
In the case of `CCOC(=O)C1=Cc2cc(-c3ccc(C(=O)N4CCCC4)cc3)ccc2N=C(N)C1C` (stereo not shown) [Compound 3173], the IC50 runs as follows: under setting [2], under 1000 nM; under setting [4], under 1000 nM.
For `CCOC(=O)C1=Cc2cc(-c3ccc(C(=O)N4CCCC4)cc3)ccc2N=C(N)C12CC2` [Compound 3260], the IC50 was under 1000 nM (IC50, nM, vs. 3M002 10 μM, agonist 3M002 at 10 μM); under 1000 nM under setting [2]; under 1000 nM under setting [4].
